Measured values taken from US7179806B2, “Δ1-pyrrolines used as pesticides” (Bayer Cropscience AG, priority 2000, dated 2007).

Assay: log P determination by HPLC (reversed-phase C18, EEC Directive 79/831 Annex V.A8)
Assay type: physicochemical
Settings: reversed-phase C18 HPLC column, pH 2.3, pH 2.3, 0.1% aqueous phosphoric acid/acetonitrile gradient, 43° C
Source text: Mobile phases for determination in the acidic range: 0.1% aqueous phosphoric acid, acetonitrile; linear gradient from 10% acetonitrile to 90% acetonitrile.

| SMILES | chromatographic logP |
| --- | --- |
| Fc1cccc(F)c1C1=NC(c2ccc(-c3cnc(Cc4ccccc4)nc3)cc2)CC1 (stereo not drawn) [Example 91] | 2.79 |
| Fc1cccc(F)c1C1=NC(c2ccc(-c3cnc(SCSC(F)(F)F)nc3)cc2)CC1 (stereo not drawn) [Example 92] | 4 |
| FC(F)Sc1ncc(-c2ccc(C3CCC(c4ccccc4Cl)=N3)cc2)cn1 (stereo not drawn) [Example 93] | 3.38 |
| Fc1cccc(F)c1C1=N[C@@H](c2ccc(-c3ccc(C(F)(F)F)cn3)cc2)CC1 [Example 94] | 3.28 |
| Fc1cccc(F)c1C1=NC(c2ccc(-c3cnc(OC(C(F)(F)F)C(F)(F)F)nc3)cc2)CC1 (stereo not drawn) [Example 95] | 3.85 |
| CN1CCN(c2ccc(-c3ccc(C4CCC(c5c(F)cccc5F)=N4)cc3)cn2)CC1 (stereo not drawn) [Example 96] | 1.04 |
| CC1CC(C)CN(c2ccc(-c3ccc(C4CCC(c5c(F)cccc5F)=N4)cc3)cn2)C1 (stereo not drawn) [Example 97] | 2.1 |
| CCCCCCN(C)c1ncc(-c2ccc(C3CCC(c4c(F)cccc4F)=N3)cc2)cn1 (stereo not drawn) [Example 99] | 4.94 |
| CCCOc1ncc(-c2ccc(C3CCC(c4c(F)cccc4F)=N3)cc2)cn1 (stereo not drawn) [Example 100] | 2.72 |
| CCN1CCN(c2ncc(-c3ccc(C4CCC(c5c(F)cccc5F)=N4)cc3)cn2)CC1 (stereo not drawn) [Example 101] | 1.24 |
| CCOc1ncc(-c2ccc(C3CCC(c4c(F)cccc4F)=N3)cc2)cn1 (stereo not drawn) [Example 102] | 2.21 |
| CCC1CC(CC)CN(c2ncc(-c3ccc(C4CCC(c5c(F)cccc5F)=N4)cc3)cn2)C1 (stereo not drawn) [Example 103] | 5.82 |
| CC1CN(c2ncc(-c3ccc(C4CCC(c5c(F)cccc5F)=N4)cc3)cn2)CC(C)O1 (stereo not drawn) [Example 104] | 3 |
| Fc1cccc(F)c1C1=NC(c2ccc(-c3cnc(N4CCCCCC4)nc3)cc2)CC1 (stereo not drawn) [Example 105] | 3.41 |

The remaining lines, values ahead:

| chromatographic logP | SMILES |
| --- | --- |
| 2.25 | O=C1CCCCCN1c1ccc(-c2ccc(C3CCC(c4c(F)cccc4F)=N3)cc2)cn1 (stereo not drawn) [Example 106] |
| 2.48 | COCCN(CCOC)c1ncc(-c2ccc(C3CCC(c4c(F)cccc4F)=N3)cc2)cn1 (stereo not drawn) [Example 107] |
| 3.74 | C=CCN(CC=C)c1ncc(-c2ccc(C3CCC(c4c(F)cccc4F)=N3)cc2)cn1 (stereo not drawn) [Example 108] |
| 1.65 | Fc1cccc(F)c1C1=NC(c2ccc(-c3ccc(N4CCCCCC4)nc3)cc2)CC1 (stereo not drawn) [Example 109] |
| 3.07 | Fc1cccc(F)c1C1=NC(c2ccc(-c3ccc(Br)cn3)cc2)CC1 (stereo not drawn) [Example 110] |
| 1.49 | Fc1cccc(F)c1C1=NC(c2ccc(-c3ccc(N4CCCCC4)nc3)cc2)CC1 (stereo not drawn) [Example 111] |
| 1.65 | CCCC(C)N1CCN(c2ncc(-c3ccc(C4CCC(c5c(F)cccc5F)=N4)cc3)cn2)CC1 (stereo not drawn) [Example 112] |
| 1.3 | CCC(C)N1CCN(c2ccc(-c3ccc(C4CCC(c5c(F)cccc5F)=N4)cc3)cn2)CC1 (stereo not drawn) [Example 113] |
| 1.28 | Fc1cccc(F)c1C1=NC(c2ccc(-c3ccc(-n4ccnc4)nc3)cc2)CC1 (stereo not drawn) [Example 114] |
| 3.88 | Cc1ccc(N2CCN(c3ncc(-c4ccc(C5CCC(c6c(F)cccc6F)=N5)cc4)cn3)CC2)cc1C (stereo not drawn) [Example 116] |
| 2.7 | Fc1cccc(F)c1C1=NC(c2ccc(-c3cnc(N4CCN(c5ncccn5)CC4)nc3)cc2)CC1 (stereo not drawn) [Example 117] |
| 1.55 | Fc1cccc(F)c1C1=NC(c2ccc(-c3cnc(-n4cncn4)nc3)cc2)CC1 (stereo not drawn) [Example 118] |
| 5.47 | CC(C)(C)C1CCN(c2ncc(-c3ccc(C4CCC(c5c(F)cccc5F)=N4)cc3)cn2)CC1 (stereo not drawn) [Example 119] |
| 4.38 | CC1(C)CCN(c2ncc(-c3ccc(C4CCC(c5c(F)cccc5F)=N4)cc3)cn2)CC1 (stereo not drawn) [Example 120] |
| 4.58 | CCC1CCN(c2ncc(-c3ccc(C4CCC(c5c(F)cccc5F)=N4)cc3)cn2)CC1 (stereo not drawn) [Example 121] |
| 3.84 | Fc1cccc(F)c1C1=NC(c2ccc(-c3cnc(N4CCC(C(F)(F)F)CC4)nc3)cc2)CC1 (stereo not drawn) [Example 122] |
